# Data: US20250325565A1, “ERAVACYCLINE FOR TREATING CANCER” (B. G. NEGEV TECHNOLOGIES AND APPLICATIONS LTD., priority 2022, published 2025)
# What was measured:
# Assay type in all cases: cell-based, human
# BxPC-3 cells = assay: XTT cell proliferation assay, BxPC-3
# Protocol: (§1) Human PDAC (AsPC-1, BxPC-3, Panc-1 scr, Panc-1 p53-R273H knock-out (KO) hTERT-HPNE), breast (MCF-7), lung (A549), and colon (HT-29) cancer cell lines were purchased from the American Type Culture Collection (ATCC). The MCF-7, A549, Panc-1 scr, Panc-1 p53 KO and HT-29 cell lines were grown in Dulbecco's Modified Eagle Medium (DMEM; Biological Industries, Beit HaEmek (BI), Israel), and the BxPC-3 and AsPC-1 cell lines were cultured in Roswell Park Memorial Institute-1640 (RPMI-1640; BI, Israel) medium. All media was supplemented with 10% fetal bovine serum (FBS), 200 μM L-glutamine (BI), and 1% penicillin-streptomycin (BI). Cells were cultured at 37° C. in a 5% CO2 humidified incubator.
# Eravacycline dihydrochloride (MedChem Express (MCE)) was dissolved in […] (DDW). Tigecycline (MCE) and omadacycline (MCE) were dissolved in dimethyl sulphoxide (DMSO). All drugs were prepared as 100 mM stock solutions. All cell lines were treated with DMSO as a control (less than 0.1%) or tigecycline, omadacycline, or eravacycline (at the indicated concentrations) for 72 hours. Cell viability and proliferation were determined using the XTT Cell Proliferation Assay Kit (Promega).
# (§2) The XTT Cell Proliferation Assay Kit was used to determine cell viability and proliferation. Cells were seeded in 96-well plates at a density of 4,000 cells per well and allowed to attach overnight in a 5% CO2 incubator at 37° C. After overnight incubation, cells were treated with culture medium or in a medium containing tigecycline, omadacycline, or eravacycline at different concentrations (1, 2, 5, 10, 25, and 50 μM) for the indicated time period. Then, 50 μl XTT reaction solution (0.1 ml activation solution+5 ml XTT reagent solution) was added to each well, and the plate was incubated at 37° C. for two hours. After shaking the plate gently to distribute the dye in the wells, the absorbance was measured with a spectrophotometer (Bio-RadiMark Microplate Absorbance reader) at a wavelength of 450 nm and a reference wavelength of 655 nm.
# To evaluate the half maximal inhibitory concentration (IC50) of tetracycline derivatives on five different cell lines (MCF-7, A549, HT-29, BxPC-3, and AsPC-1), the cells were seeded and allowed to attach overnight. All cells were washed with phosphate buffered saline (PBS) and then cultured in fresh media containing the drugs tigecycline, omadacycline, or eravacycline at an increasing concentration (0-50 μM) for 72 h. Inhibition of cell proliferation was determined using the XTT Cell Proliferation Assay Kit.
# To investigate the effect of tetracycline derivatives on cell proliferation in human breast, lung, colon, and PDAC cells, the inventors treated all cell lines (MCF-7, A549, HT-29, BxPC-3, and AsPC-1) with different concentrations of tigecycline, omadacycline, and eravacycline (1, 2, 5, 10, 25, and 50 μM), with medium used as a control, for 72 h. Then, an XTT assay was performed to determine the growth inhibition rate.
# [1] = test system: Panc-1 scr, Panc-1 p53-R273H knock-out (KO) cell lines; assay: XTT cell proliferation assay, Panc-1 cell lines; settings: 72 h, 1-50 μM
# Protocol: as §1
# as §2, with “Then, 50 μl XTT reaction solution (0.1 ml activation solution+5 ml XTT reagent solution) was added to each well, and the plate was incubated at 37° C. for two hours.” left out, “nm. […]” for “nm.”
# POLK = assay: Western blot of POLK protein expression in BxPC-3 cells; settings: BxPC-3, 72 h, increasing concentrations
structure (smiles),measurement,setting,value
"CN(C)[C@@H]1C(O)=C(C(N)=O)C(=O)[C@@]2(O)C(O)=C3C(=O)c4c(O)c(NC(=O)CN5CCCC5)cc(F)c4C[C@H]3C[C@@H]12 [eravacycline, (4S,4aS,5aR,12aS)-4-(Dimethylamino)-7-fluoro-3,10,12,12a-tetrahydroxy-1,11-dioxo-9-[2-(pyrrolidin-1-yl)acetamido]-1,4,4a,5,5a,6,11,12a-octahydrotetracene-2-carboxamide]",decrease in cell growth,"BxPC-3 cells; BxPC-3, 1 μM, 72 h",27%
same,decrease in cell growth,"BxPC-3 cells; BxPC-3, 10 μM, 72 h",63%
same,decrease in cell growth,"BxPC-3 cells; BxPC-3, 50 μM, 72 h",93%
same,effect on cell survival / viability (in words),"BxPC-3 cells; BxPC-3, 72 h, 1-50 μM",strong and selective viability reduction
same,"suppression of proliferation, up to","BxPC-3 cells; BxPC-3, 72 h, concentration-dependent, 1-50 μM",90-93%
same,cytotoxicity at 25 µM,"BxPC-3 cells; Homo sapiens, BXPC-3, 72 h, read-out: decrease in cell growth / viability, BxPC-3, 25 μM, 72 h",93%
same,IC50,"BxPC-3 cells; Homo sapiens, BxPC-3, 72 h, XTT, read-out: IC50, inhibition of cell proliferation",3.57 µM
same,decrease in cell growth / viability,"BxPC-3 cells; human, 72 h, 25 μM",90%
same,effect on cell viability (in words),[1],No significant effect
same,effect on cell viability (in words),[1]; listed as Eravacycline,no toxicity was observed
same,POLK protein expression vs control,POLK,significantly reduced
